Starred links: 1 amine or outer side, 2 acyl side, 3 side chain; linkers in the order of their positions; H or OH if unused. Non-standard residues stand in square brackets, D forms with d. Residues, ends and D or L forms follow the SMILES beside them. ξ: configuration not given here. *: point of attachment. Phe(4-Br) = N[C@@H](Cc1ccc(Br)cc1)C(=O)O; Phe(4-Cl) = N[C@@H](Cc1ccc(Cl)cc1)C(=O)O; Phe(4-I) = N[C@@H](Cc1ccc(I)cc1)C(=O)O; 1Nal = N[C@@H](Cc1cccc2ccccc12)C(=O)O; Bta = N[C@@H](Cc1csc2ccccc12)C(=O)O; ξW = NC(Cc1c[nH]c2ccccc12)C(=O)O; Suc = O=C(CCC(=O)[*:2])[*:1]; Cbz = O=C(OCc1ccccc1)*; Bn = c1ccc(C*)cc1
Each compound was assayed against endothelin converting enzyme (ECE) (Sus scrofa, UniProt F1SU04) (assay: "ECE" assay with porcine aortic "ECE" prep, fluorogenic substrate Suc-Ile-Ile-Trp-MCA). Conditions: pH 7.
Chain of endothelin converting enzyme (ECE) (F1SU04 entry or part of it): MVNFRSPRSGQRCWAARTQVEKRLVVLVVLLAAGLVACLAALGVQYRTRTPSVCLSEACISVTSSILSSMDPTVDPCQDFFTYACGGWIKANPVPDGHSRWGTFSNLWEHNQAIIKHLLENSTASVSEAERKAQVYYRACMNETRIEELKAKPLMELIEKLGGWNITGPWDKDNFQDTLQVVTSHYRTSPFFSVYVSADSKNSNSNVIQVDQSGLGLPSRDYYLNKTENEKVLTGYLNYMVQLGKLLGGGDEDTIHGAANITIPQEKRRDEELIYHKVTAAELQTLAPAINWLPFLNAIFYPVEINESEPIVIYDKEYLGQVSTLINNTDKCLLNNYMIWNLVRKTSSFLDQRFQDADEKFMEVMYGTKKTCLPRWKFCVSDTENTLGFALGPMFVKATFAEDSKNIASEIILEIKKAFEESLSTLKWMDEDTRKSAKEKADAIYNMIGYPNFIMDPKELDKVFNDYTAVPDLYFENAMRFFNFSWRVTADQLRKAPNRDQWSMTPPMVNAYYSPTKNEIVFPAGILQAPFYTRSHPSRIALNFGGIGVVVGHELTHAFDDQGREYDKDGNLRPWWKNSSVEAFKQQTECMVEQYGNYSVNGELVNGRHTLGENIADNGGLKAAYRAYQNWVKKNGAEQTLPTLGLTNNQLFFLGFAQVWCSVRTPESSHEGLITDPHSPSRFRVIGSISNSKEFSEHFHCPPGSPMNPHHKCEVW
Type: biochemical
Experimental: IC50 values were determined as follows:
Porcine Aortic "ECE" Prep
Porcine aortas (22-25) were obtained fresh from a local slaughterhouse and delivered in cold PBS on ice. The aortas were cut open, rinsed with cold PBS and the endothelial cell layer scraped into cold PBS using a scalpel. The endothelial cells were pelleted by centrifugation, rinsed once with cold PBS, and repelleted. The pellet was lysed by addition of 10 volumes of 10 mM Tris-HCl, pH 7.0, containing protease inhibitors and DTS, followed by brief sonication and homogenization. The lysate was centrifuged at 100,000 g for 1 hour and the supernatant applied to a MONOQ FPLC anion exchange column equilibrated in 10 mM Tris-HCl, pH 7.0 (buffer A) which was then developed with an increasing gradient of NaCl in buffer A. The active fractions were aliquoted and stored at -70° C.
The ECE assay was performed in 96-well microplates in a total volume of 200μ/well. The assay cocktail contains 100 mM Tris-HCl, pH 7.0, 20 mM CaCl2, 80 μM substrate (Suc-Ile-Ile-Trp-MCA), enzyme and test compounds. The test compounds were preincubated with the enzyme for 15-20 minutes before initiation of the assay by addition of the substrate. The assay was incubated overnight at 37° C. and the fluorescence intensity caused by the release of AMC was determined using a fluorescence microplate reader (EX360 nm/EM460 nm). IC50 values for compounds were determined by constructing concentration-effect curves for the inhibition of enzyme activity. Concentrations on the linear portion of the inhibition curve were used to determine the IC50 utilizing a Hill plot.

`O=C[C@H](Cc1c[nH]c2ccccc12)NC(=O)[C@H](Cc1cccc2ccccc12)NC(=O)[C@H](Cc1ccc(Br)cc1)NC(=O)OCc1ccccc1` [Example 37, N-Benzyloxycarbonyl-S-p-bromophenylalanyl-S-1'naphthylalanyl-1-S-formyl-1-(1H-indol-3-yl-methyl)-methylamide] (Cbz-[Phe(4-Br)]-[1Nal]-Trp-aldehyde) and `O=C[C@H](Cc1c[nH]c2ccccc12)NC(=O)[C@H](Cc1cccc2ccccc12)NC(=O)[C@H](Cc1ccc(I)cc1)NC(=O)OCc1ccccc1` [Example 40, N-Benzyloxycarbonyl-S-p-iodophenylalanyl-S-1'naphthylalanyl-1-S-formyl-1-(1H-indol-3-yl-methyl)-methylamide] (Cbz-[Phe(4-I)]-[1Nal]-Trp-aldehyde) are within 1.5-fold of each other in IC50: 7 nM for the first, 10 nM for the second.

Same assay, conditions: porcine aortic endothelial cell ECE prep; 80 μM Suc-Ile-Ile-Trp-MCA; 15-20 min preincubation; overnight at 37° C.; pH 7.0; AMC fluorescence

First: CC[C@H](C)[C@H](NC(=O)OCc1ccccc1)C(=O)N[C@H](C(=O)N[C@H](C=O)Cc1c[nH]c2ccccc12)[C@@H](C)CC [Example 15, N-Benzyloxycarbonyl-S-isoleucyl-S-isoleucine 1-S-formyl-2-(1H-indol-3-yl]ethylamide] (Cbz-Ile-Ile-Trp-aldehyde)
Second: CC[C@H](C)[C@H](NC(=O)[C@@H](NC(=O)OCc1ccccc1)C(C)C)C(=O)NC(C=O)Cc1c[nH]c2ccccc12 (stereo partly drawn) [Example 24] (Cbz-Val-Ile-[ξW]-aldehyde)
The IC50 of the first is 7.5-fold lower: 200 nM for the first, 1500 nM for the second. The first is the more potent here.

First: CC[C@H](C)[C@H](NC(=O)OCc1ccccc1)C(=O)N[C@H](C(=O)N[C@H](C=O)Cc1ccccc1)[C@@H](C)CC [Example 16, N-Benzyloxycarbonyl-S-isoleucyl-S-isoleucine 1-S-formyl-2-phenyl-ethylamide] (Cbz-Ile-Ile-Phe-aldehyde)
Second: CC[C@H](C)[C@H](NC(=O)OCc1ccccc1)C(=O)N[C@H](C(=O)N[C@H](C=O)Cc1ccc(O)cc1)[C@@H](C)CC [Example 33, N-Benzyloxycarbonyl-S-isoleucyl-S-isoleucyl-1-S-formyl-1-(4-hydroxy-benzyl)-methylamide] (Cbz-Ile-Ile-Tyr-aldehyde)
The IC50 of the first is 2-fold higher: 400 nM for the first, 200 nM for the second.

`CC[C@H](C)[C@H](NC(=O)OCc1ccccc1)C(=O)N[C@H](C(=O)N[C@H](C=O)CC(C)C)[C@@H](C)CC` [Example 17, N-Benzyloxycarbonyl-S-isoleucyl-S-isoleucine 1-S-formyl-3-methyl-butylamide] (Cbz-Ile-Ile-Leu-aldehyde) and `CCC(C)C(C=O)NC(=O)C(NC(=O)C(NC(=O)OCc1ccccc1)C(C)CC)C(C)CC` [Example 22, N-Benzyloxycarbonyl-S-isoleucyl-S-isoleucyl-1-S-formyl-1-(S)-1-methylpropyl)-methylamide] (Cbz-Ile-Ile-Ile-aldehyde; configuration not given here) are within 1.5-fold of each other in IC50: 4400 nM for the first, 4000 nM for the second.

First: CC[C@H](C)[C@H](NC(=O)OCc1ccccc1)C(=O)N[C@H](C(=O)N[C@H](C=O)Cc1csc2ccccc12)[C@@H](C)CC [Example 18, N-Benzyloxycarbonyl-S-isoleucyl-S-isoleucine 1-S-formyl-2-(benzo-thien-3-yl)ethylamide] (Cbz-Ile-Ile-[Bta]-aldehyde)
Second: CC[C@H](C)[C@H](NC(=O)OCc1ccccc1)C(=O)N[C@H](C(=O)N[C@H](C=O)Cc1c[nH]c2ccccc12)C(C)C [Example 29, N-Benzyloxycarbonyl-S-isoleucyl-S-valyl-1-S-formyl-1-(1H-indol-3-yl-methyl)-methylamide] (Cbz-Ile-Val-Trp-aldehyde)
The IC50 of the first is 3-fold higher: 600 nM for the first, 200 nM for the second. The second is the more potent here.

First: O=C[C@H](Cc1c[nH]c2ccccc12)NC(=O)[C@H](Cc1ccc(OCc2ccccc2)cc1)NC(=O)[C@H](Cc1ccc(Br)cc1)NC(=O)OCc1ccccc1 [Example 19, N-Benzyloxycarbonyl-S-p-bromophenylalnyl-S-(O-benzyl)tyrosyl-1-S-formyl-1-(1H-indol-3-yl-methyl)-methylamide] (Cbz-[Phe(4-Br)]-Tyr(Bn)-Trp-aldehyde)
Second: O=C[C@H](Cc1c[nH]c2ccccc12)NC(=O)[C@H](Cc1ccc(OCc2ccccc2)cc1)NC(=O)[C@H](Cc1c[nH]c2ccccc12)NC(=O)OCc1ccccc1 [Example 36, N-Benzyloxycarbonyl-S-tryptophanyl-S-(O-benzyl)tyrosyl-1-S-formyl-1-(1H-indol-3-yl-methyl)-methylamide] (Cbz-Trp-Tyr(Bn)-Trp-aldehyde)
The IC50 of the first is 3-fold lower: 10 nM for the first, 30 nM for the second.

`CC[C@H](C)[C@H](NC(=O)[C@H](Cc1ccccc1)NC(=O)OCc1ccccc1)C(=O)N[C@H](C=O)[C@@H](C)CC` [Example 20, N-Benzyloxycarbonyl-S-phenylalanyl-S-isoleucyl-1-S-formyl-1-(S)-1-methylpropylmethylamide] (Cbz-Phe-Ile-Ile-aldehyde) and `CC[C@H](C)[C@@H](C=O)NC(=O)[C@H](Cc1ccccc1)NC(=O)[C@H](C)NC(=O)OCc1ccccc1` [Example 21, N-Bezyloxycarbonyl-S-alanyl-S-phenylalanyl-1-S-formyl-1-(2-S-butyl)-methylamide] (Cbz-Ala-Phe-Ile-aldehyde) are within 1.5-fold of each other in IC50: 1100 nM for the first, 1200 nM for the second.

First: CC[C@H](C)[C@H](NC(=O)[C@H](Cc1ccccc1)NC(=O)OCc1ccccc1)C(=O)N[C@H](C=O)Cc1c[nH]c2ccccc12 [Example 25, N-Benzyloxycarbonyl-S-phenylalanyl-S-isoleucyl-1-S-formyl-1-(1H-indol-3-yl-methyl)-methylamide] (Cbz-Phe-Ile-Trp-aldehyde)
Second: CCC(C)C(NC(=O)OCc1ccccc1)C(=O)NC(Cc1ccccc1)C(=O)NC(C=O)Cc1c[nH]c2ccccc12 (stereo not drawn) [Example 27, N-Benzyloxycarbonyl-S-isoleucyl-S-phenylalanyl-1-S-formyl-1-(1H-indol-3-yl-methyl)-methylamide] (Cbz-Ile-Phe-Trp-aldehyde; configuration not given here)
The IC50 of the first is 1.7-fold lower: 300 nM for the first, 500 nM for the second.

Compared with `C[C@H](NC(=O)OCc1ccccc1)C(=O)N[C@@H](Cc1ccccc1)C(=O)N[C@H](C=O)Cc1c[nH]c2ccccc12` [Example 26, N-Benzyloxycarbonyl-S-alanyl-S-phenylalanyl-1-S-formyl-1-(1H-indol-3-yl-methyl)-methylamide] (Cbz-Ala-Phe-Trp-aldehyde), `O=CC(Cc1c[nH]c2ccccc12)NC(=O)C(Cc1ccccc1)NC(=O)C(Cc1ccccc1)NC(=O)OCc1ccccc1` (stereo not drawn) [Example 32, N-Benzyloxycarbonyl-S-phenylalanyl-S-phenylalanyl-1-S-formyl-1-(1H-indol-3-yl-methyl)-methylamide] (Cbz-Phe-Phe-Trp-aldehyde; configuration not given here) is 15-fold lower in IC50: 1500 nM for the first, 100 nM for the second.

First: CCC(C)C(NC(=O)C(CC(C)C)NC(=O)OCc1ccccc1)C(=O)NC(C=O)Cc1c[nH]c2ccccc12 (stereo not drawn) [Example 28] (Cbz-Leu-Ile-Trp-aldehyde; configuration not given here)
Second: CC[C@H](C)[C@H](NC(=O)OCc1ccccc1)C(=O)N[C@H](C(=O)NC(C=NNC(N)=O)Cc1c[nH]c2ccccc12)[C@@H](C)CC (stereo partly drawn) [Example 56, N-Benzyloxycarbonyl-L-isoleucyl-L-isoleucine-L-N-[1[semicarbazonomethyl]2-(1H-indol-3-yl)ethyl]amide]
The IC50 of the first is 50-fold lower: 200 nM for the first, 10000 nM for the second.

First: CC[C@H](C)[C@H](NC(=O)OCc1ccccc1)C(=O)N[C@@H](Cc1c[nH]c2ccccc12)C(=O)N[C@H](C=O)Cc1c[nH]c2ccccc12 [Example 30, N-Benzyloxycarbonyl-S-isoleucyl-S-tryptophanyl-1-S-formyl-1-(1H-indol-3-yl-methyl)-methylamide] (Cbz-Ile-Trp-Trp-aldehyde)
Second: O=CC(Cc1c[nH]c2ccccc12)NC(=O)[C@H](Cc1cccc2ccccc12)NC(=O)[C@H](Cc1c[nH]c2ccccc12)NC(=O)OCc1ccccc1 (stereo partly drawn) [Example 34, N-Benzyloxycarbonyl-S-tryptophanyl-S-1'naphthylalanyl-1-S-formyl-1-(1H-indol-3-yl-methyl)-methylamide] (Cbz-Trp-[1Nal]-[ξW]-aldehyde)
The IC50 of the first is 25-fold higher: 200 nM for the first, 8 nM for the second. The second is the more potent here.

Compared with `O=C[C@H](Cc1ccc(Cl)cc1)NC(=O)[C@H](Cc1ccc(OCc2ccccc2)cc1)NC(=O)[C@H](Cc1cccc2ccccc12)NC(=O)OCc1ccccc1` [Example 39, N-Benzyloxycarbonyl-S-1'naphthylalanyl-S-(O-benzyl)tyrosyl-1-S-formyl-1-(4-chlorophenylmethyl)-methyloamide] (Cbz-[1Nal]-Tyr(Bn)-[Phe(4-Cl)]-aldehyde), `CC[C@H](C)[C@H](NC(=O)CC(c1ccccc1)c1ccccc1)C(=O)N[C@H](C(=O)NC(C=O)Cc1c[nH]c2ccccc12)[C@@H](C)CC` (stereo partly drawn) [Example 58] is 6.7-fold higher in IC50: 15 nM for the first, 100 nM for the second. The first is the more potent here.

Going from `C#CC(=O)C(Cc1c[nH]c2ccccc12)NC(=O)[C@@H](NC(=O)[C@@H](NC(=O)OCc1ccccc1)[C@@H](C)CC)[C@@H](C)CC` (stereo partly drawn) [Example 49, N-Benzyloxycarbonyl-L-isoleucyl-L-isoleucine-L_N-[1[2-propynoyl]2-(1H-indol-3-yl)ethyl]amide] to `CC[C@H](C)[C@H](NC(C)=O)C(=O)N[C@H](C(=O)NC(C=O)Cc1c[nH]c2ccccc12)[C@@H](C)CC` (stereo partly drawn) [Example 60] (Ac-Ile-Ile-[ξW]-aldehyde), the IC50 falls from 10000 nM to 1000 nM (10-fold).

`CC[C@H](C)[C@H](NC(=O)CCC(=O)O)C(=O)N[C@H](C(=O)N[C@H](C=O)Cc1c[nH]c2ccccc12)[C@@H](C)CC` [Example 61] (Suc-Ile-Ile-Trp-aldehyde) was tested, and the IC50 was 800 nM.
